Measured values as given in ChEMBL document CHEMBL1147840, “Synthesis and bioactivity of 4-alkyl(aryl)thioquinazoline derivatives” (Bioorg Med Chem Lett, 2007).

Assays:
Format in all cases: functional, cell-based
[1] = system: PC-3; assay: Antitumor activity against human PC3 cells by MTT method
[2] = system: Bcap37; assay: Antitumor activity against human Bcap37 cells by MTT method
[3] = system: BGC-823; assay: Antitumor activity against human BGC823 cells by MTT method

IC50 [1] | IC50 [3] | Structure (SMILES) | IC50 [2]
5.6 µM | 34.5 µM | COc1cc(-c2nnc(Sc3ncnc4ccccc34)o2)cc(OC)c1OC | 23.4 µM
1.8 µM | 39 µM | COc1cc(-c2nnc(Sc3ncnc4c(OC)c(OC)c(OC)cc34)o2)cc(OC)c1OC | 20.9 µM
8.7 µM | 31.2 µM | COc1cc(-c2nnc(Sc3ncnc4c(OC)c(OC)c(OC)cc34)s2)cc(OC)c1OC | 34.7 µM
40.9 µM | 29 µM | CCCSc1ncnc2ccc(I)cc12 | 42.1 µM
28.8 µM | 33.2 µM | C=CCSc1ncnc2ccc(I)cc12 | 39.1 µM
13.7 µM | 6.9 µM | COc1cc2ncnc(Nc3cccc(Br)c3)c2cc1OC | 8.9 µM
19 µM | 61.2 µM | COc1cc(-c2nnc(Sc3ncnc4ccccc34)s2)cc(OC)c1OC | 50.9 µM
23.1 µM | 45.6 µM | COc1cccc(Sc2ncnc3ccccc23)c1 | 56.7 µM
48 µM | 78.1 µM | C=CCSc1ncnc2ccccc12 | 67.9 µM
38.9 µM | 31.1 µM | CCSc1ncnc2ccc(I)cc12 | 39 µM
32.1 µM | 29 µM | CCCCSc1ncnc2ccc(I)cc12 | 31 µM
8.1 µM | 53.2 µM | COc1cccc(Sc2ncnc3c(OC)c(OC)c(OC)cc23)c1 | 45.6 µM
12.2 µM | 19 µM | COc1cc(-c2nnc(Sc3ncnc4ccc(I)cc34)s2)cc(OC)c1OC | 21 µM
8.9 µM | 28.9 µM | COc1cc(-c2nnc(Sc3ncnc4ccc(I)cc34)o2)cc(OC)c1OC | 31 µM
